In patent US5498780A, “Platinum complex and malignant tumor treating drug containing the same” (SS Pharmaceutical Co., Ltd., priority 1994, dated 1996):

Legend:
[1] = 50% lethal dose by single peritoneal administration, obtained at the time of the dose setting; format: in vivo, CDF1 mice
Source text: (§1) In these tables, ILSmax means maximum ILS value (%), and corresponding dose (mg/kg) is Shown in parenthesis.

[2] = tested on: cisplatin-resistant murine L1210 leukemia cell (L1210/DDP); assay: Antitumor effect on cisplatin-resistant murine L1210 leukemia cell (L1210/DDP); format: in vivo, murine; male CDF1 mice; details: for ILSmax (maximum percent increase in life-span) / dose corresponding to ILSmax / ILS50 (dose which shows 50% of the ILS value by 5 administrations): i.p. once a day for 5 days; for ILSmax (maximum percent increase in life-span): 30 days observation; for ILS50 (dose which shows 50% of the ILS value by 5 administrations): linear regression
Description: (§2) Murine L1210 leukemia cells (1×10^5 cells) were inoculated peritoneally into six-week-old male CDF1 mice on day 0. From the next day after the inoculation, a drug (the compound of the invention or a compound for comparison) was administered peritoneally once a day for 5 days. After 30 days of observation, the percent increase in life-span (ILS) was calculated as follows: […]
(§3) T: mean survival days of the drug-treated group
(§4) C: mean survival days of control group
In these tables, ILSmax means maximum ILS value (%), and corresponding dose (mg/kg) is Shown in parenthesis. In this test, cisplatin and carboplatin were respectively tested in each test lot for accurate comparison.
Antitumor effect on cisplatin-resistant murine L1210 leukemia cell (L1210/DDP):
The test of Test Example 1 was repeated except that cisplatin-resistant murine L1210 leukemia cell (L1210/DDP) was used instead of murine L1210 leukemia cell.

[3] = tested on: murine P388 leukemia cell; assay: Antitumor effect on murine P388 leukemia cell; format: in vivo, murine; male CDF1 mice; details: for ILSmax (maximum percent increase in life-span) / ILS50 (dose which shows 50% of the ILS value by 5 administrations) / dose corresponding to ILSmax: P388, i.p. once a day for 5 days; for ILSmax (maximum percent increase in life-span): 30 days observation; for ILS50 (dose which shows 50% of the ILS value by 5 administrations): linear regression; for TI (therapeutic index, LD50 value/ILS50 value): P388
Description: as §2, §3, §4, §1
Antitumor effect on murine P388 leukemia cell:
The test of Test Example 1 was repeated except that 1×10^6 of murine P388 leukemia cells were used instead of 1×10^5 of murine L1210 leukemia cells.

[4] = tested on: murine L1210 leukemia cell; assay: Antitumor effect on murine L1210 leukemia cell (increase in life-span of inoculated mice); format: in vivo, murine; male CDF1 mice; details: for ILSmax (maximum percent increase in life-span) / ILS50 (dose which shows 50% of the ILS value by 5 administrations) / dose corresponding to ILSmax: L1210, i.p. once a day for 5 days; for ILSmax (maximum percent increase in life-span): 30 days observation; for ILS50 (dose which shows 50% of the ILS value by 5 administrations): linear regression; for TI (therapeutic index, LD50 value/ILS50 value): L1210
Description: as §2, §3, §4, §1

| SMILES | LD50 (50% lethal dose) [1] [mg/kg] | ILSmax (maximum percent increase in life-span) ([2]; Table 6 test lot) [%] | ILSmax (maximum percent increase in life-span) ([2]; Table 7 test lot) [%] | dose corresponding to ILSmax ([2]; Table 6 test lot) [mg/kg] | dose corresponding to ILSmax ([2]; Table 7 test lot) [mg/kg] | ILSmax (maximum percent increase in life-span) ([3]; Table 8 test lot) [%] | ILSmax (maximum percent increase in life-span) ([3]; Table 9 test lot) [%] | ILSmax (maximum percent increase in life-span) ([3]; Table 10 test lot) [%] | ILS50 (dose which shows 50% of the ILS value by 5 administrations) ([3]; Table 8 test lot) [mg/kg] | ILS50 (dose which shows 50% of the ILS value by 5 administrations) ([3]; Table 9 test lot) [mg/kg] | ILS50 (dose which shows 50% of the ILS value by 5 administrations) ([3]; Table 10 test lot) [mg/kg] | dose corresponding to ILSmax ([3]; Table 8 test lot) [mg/kg] | dose corresponding to ILSmax ([3]; Table 9 test lot) [mg/kg] | dose corresponding to ILSmax ([3]; Table 10 test lot) [mg/kg] | TI (therapeutic index, LD50 value/ILS50 value) ([3]; Table 8 test lot) | TI (therapeutic index, LD50 value/ILS50 value) ([3]; Table 10 test lot) | ILSmax (maximum percent increase in life-span) ([4]; Table 4 test lot) [%] | ILSmax (maximum percent increase in life-span) ([4]; Table 5 test lot) [%] | ILS50 (dose which shows 50% of the ILS value by 5 administrations) ([4]; Table 5 test lot) [mg/kg] | dose corresponding to ILSmax ([4]; Table 5 test lot) [mg/kg] | further results |
| --- | --- | --- | --- | --- | --- | --- | --- | --- | --- | --- | --- | --- | --- | --- | --- | --- | --- | --- | --- | --- | --- |
| N.N.O=C([O-])C1(C(=O)[O-])CCC1.[Pt+2] [Carboplatin, carboplatin, reference compound] | 245.0 | 8.5 | 14.3 | 16.0 | 64.0 | 73.1 | 79.8 | 57.3 | 10.5 | 12.1 | 13.8 | 16.0 | 32.0 | 32.0 | 23.3 | 17.8 | 50.6 | 72.5 | 33.9 | 64.0 | TI (therapeutic index, LD50 value/ILS50 value) ([3]; Table 9 test lot): 20.2; ILS50 (dose which shows 50% of the ILS value by 5 administrations) ([4]; Table 4 test lot): 41.0 mg/kg; dose corresponding to ILSmax ([4]; Table 4 test lot): 64.0 mg/kg; TI (therapeutic index, LD50 value/ILS50 value) ([4]; Table 4 test lot): 6.0; TI (therapeutic index, LD50 value/ILS50 value) ([4]; Table 5 test lot): 7.2 |
| N.ONC1CCCCC1.[Cl][Pt][Cl] [Compound No. 4, cis-dichloroammine (N-cyclohexylhydroxylamine)platinum(II)] | 88.2 | > 183.0 |  | 2.0 |  | 108.3 |  |  | 1.1 |  |  | 16.0 |  |  | 80.2 |  | > 120.0 |  |  |  | TI (therapeutic index, LD50 value/ILS50 value) ([2]; Table 6 test lot): > 88.2; ILS50 (dose which shows 50% of the ILS value by 5 administrations) ([2]; Table 6 test lot): < 1.0 mg/kg; ILS50 (dose which shows 50% of the ILS value by 5 administrations) ([4]; Table 4 test lot): 2.1 mg/kg; dose corresponding to ILSmax ([4]; Table 4 test lot): 8.0 mg/kg; TI (therapeutic index, LD50 value/ILS50 value) ([4]; Table 4 test lot): 42.0 |
| CCCO[NH][Pt]1([NH2])[O]C(=O)C2(CCC2)C(=O)[O]1 [Compound No. 16, (1,1-cyclobutane dicarboxylate)ammine (O-propylhydroxylamine)platinum(II)] | 176.8 |  |  |  |  |  |  | 72.7 |  |  | 8.2 |  |  | 8.0 |  | 21.6 |  |  |  |  |  |
| CON.N.[Cl][Pt][Cl] [Compound No. 2, cis-dichloroammine (O-methylhydroxylamine)platinum(II)] | 22.1 |  |  |  |  | 126.9 |  |  | < 0.5 |  |  | 4.0 |  |  | > 44.2 |  |  |  |  |  |  |
| CC(C)(C)ON.N.[Cl][Pt][Cl] [Compound No. 7, cis-dichloroammine (O-tert-butylhydroxylamine)platinum(II)] | 22.1 |  | > 206.1 |  | 1.0 |  | 92.3 |  |  | < 1.0 |  |  | 2.0 |  |  |  |  | > 181.3 | 1.5 | 8.0 | TI (therapeutic index, LD50 value/ILS50 value) ([2]; Table 7 test lot): > 22.1; ILS50 (dose which shows 50% of the ILS value by 5 administrations) ([2]; Table 7 test lot): < 1.0 mg/kg; TI (therapeutic index, LD50 value/ILS50 value) ([3]; Table 9 test lot): > 22.1; TI (therapeutic index, LD50 value/ILS50 value) ([4]; Table 5 test lot): 14.7 |
| CCO[NH][Pt]([Cl])([Cl])[NH]C(C)C [Compound No. 12, cis-dichloro(isopropylamine) (O-ethylhydroxylamine)platinum(II)] | 22.1 |  | > 206.1 |  | 2.0 |  |  |  |  |  |  |  |  |  |  |  |  | 102.5 | 1.5 | 8.0 | TI (therapeutic index, LD50 value/ILS50 value) ([2]; Table 7 test lot): > 22.1; ILS50 (dose which shows 50% of the ILS value by 5 administrations) ([2]; Table 7 test lot): < 1.0 mg/kg; TI (therapeutic index, LD50 value/ILS50 value) ([4]; Table 5 test lot): 14.7 |
| CC(C)(C)O[NH][Pt]1([NH2])[O]C(=O)C2(CCC2)C(=O)[O]1 [Compound No. 17, (1,1-cyclobutane dicarboxylate)ammine (O-tert-butylhydroxylamine)platinum(II)] | 250.0 |  |  |  |  |  |  | 72.7 |  |  | 12.4 |  |  | 32.0 |  | 20.2 |  |  |  |  |  |
| CCCO[NH][Pt]([NH2])([Cl])[Cl] [Compound No. 8, cis-dichloroammine (O-propylhydroxylamine)platinum(II)] | 11.0 |  | > 175.5 |  | 1.0 |  | 101.9 |  |  | < 0.5 |  |  | 2.0 |  |  |  |  | > 131.3 | 0.8 | 4.0 | TI (therapeutic index, LD50 value/ILS50 value) ([2]; Table 7 test lot): > 22.0; ILS50 (dose which shows 50% of the ILS value by 5 administrations) ([2]; Table 7 test lot): < 0.5 mg/kg; TI (therapeutic index, LD50 value/ILS50 value) ([3]; Table 9 test lot): > 22.0; TI (therapeutic index, LD50 value/ILS50 value) ([4]; Table 5 test lot): 13.8 |
| N.N.[Cl][Pt][Cl] [Cisplatin, cisplatin, reference compound] |  | 0.9 | 5.1 | 4.0 | 4.0 | > 120.4 | > 156.7 | > 120.9 | < 0.5 | < 0.5 | < 0.5 | 4.0 | 4.0 | 4.0 |  |  | 88.2 | 90.0 | 1.1 | 4.0 | ILS50 (dose which shows 50% of the ILS value by 5 administrations) ([4]; Table 4 test lot): 1.3 mg/kg; dose corresponding to ILSmax ([4]; Table 4 test lot): 4.0 mg/kg |
| CNO.N.[Cl][Pt][Cl] [Compound No. 1, cis-dichloroammine (N-methylhydroxylamine)platinum(II)] | 15.6 |  |  |  |  | > 136.1 |  |  | < 0.5 |  |  | 4.0 |  |  | > 31.2 |  |  |  |  |  |  |
| CCON.N.O=C1[O][Pt][O]C(=O)C12CCC2 [Compound No. 15, (1,1-cyclobutane dicarboxylate)ammine (O-ethylhydroxylamine)platinum(II)] | 176.8 |  |  |  |  |  |  | 93.6 |  |  | 8.2 |  |  | 32.0 |  | 21.6 |  |  |  |  |  |
| N.NC1CCCCC1.[Cl][Pt][Cl] [Comparative drug A, cis-dichloroammine cyclohexylamineplatinum(II), reference compound] | 31.3 | > 157.5 |  | 1.0 |  | 101.9 |  |  | < 1.0 |  |  | 4.0 |  |  | > 31.3 |  | 97.6 |  |  |  | TI (therapeutic index, LD50 value/ILS50 value) ([2]; Table 6 test lot): > 31.3; ILS50 (dose which shows 50% of the ILS value by 5 administrations) ([2]; Table 6 test lot): < 1.0 mg/kg; ILS50 (dose which shows 50% of the ILS value by 5 administrations) ([4]; Table 4 test lot): < 1.0 mg/kg; dose corresponding to ILSmax ([4]; Table 4 test lot): 8.0 mg/kg; TI (therapeutic index, LD50 value/ILS50 value) ([4]; Table 4 test lot): > 31.3 |
